Data from patent US9452037B2, “Delivery of oral care products” (INTERNATIONAL SCIENTIFIC PTY LTD, priority 2010, dated 2016).

Assay: Tooth whitening of extracted human teeth with carbamide peroxide gel, delivered passively or with displaced dipolar magnetic elements in motion
Conditions: for relative (%) change in tooth colour (reduction in yellow content), mean: 700 mg of 36% gel, 10 teeth; for relative (%) change in tooth colour (reduction in yellow content), mean / average shift from the yellow spectrum to the white spectrum, mean / change in colour luminosity, mean: 3 minutes daily for 5 days; for average shift from the yellow spectrum to the white spectrum, mean / change in colour luminosity, mean: 36% gel
Experimental: The ability of the devices of the present invention to deliver active agents (carbamide peroxide) through the dentine of teeth was tested.
20 human teeth were donated by a registered oral surgeon and stored in alcohol for 48 hours prior to ultrasonic cleaning and drying using warm air and absorbent paper. Teeth were divided into two groups. 10 teeth were allocated to the active group (exposed to pairs of displaced dipolar magnetic elements in motion) and 10 allocated to the passive delivery group (exposed to materials with no magnetic field but also in motion). Size, colour and degree of degeneration were matched between the groups.
Individual teeth were photographed using controlled light conditions before and after application of Carbamide Peroxide Gel using a 10 megapixel camera (Pentax Optio) digital camera. Commercial digital imaging software (Photoshop CS2 version 9), was used in CMYK mode to degenerate histograms and images of matched regions of enamel in tooth before and after application.
Each tooth was treated using 700 mg of 36% Carbaminde Peroxide based Tooth Whitening gel. This measure of gel was place on the surface of 10 sized matched pairs of displaced dipolar magnetic elements comprising flexible ETP008 magnetic material formed of a parallel linear array of displaced dipolar magnetic elements with common pole pairs of 450 gauss peak flux with a centre to centre spatial separation of 4 mm oscillated by electrical motor at a frequency of 3 Hz [this is also known as the field-in-motion or FIM group, or eM patch group]. The control group was placed on the surface of polystyrene cards and also oscillated at 3 Hz using the same motorized oscillation means. Teeth were placed horizontally into the carbamide peroxide gel mounds ensuring complete contact and coverage. After 3 minutes of exposure, teeth were removed, cleaned and preserved for the following day. This was repeated for 5 consecutive days.
Analysis was conducted using three measures of colour change. Relative change in percentage of yellow in the image, changes in the spectrum shift from yellow to white and in the luminosity level.
Relative change in the percentage of Yellow in the matched regions of enamel was taken as reflecting the change in the colour of the underlying dentin materials. Differences in the relative change in the Yellow spectrum were interpreted as reflecting the different penetrations rates of peroxide delivery through the enamel under active and passive conditions.
Changes in the spectrum medium point reflects change in colour from the yellow towards the white end of the spectrum. Again, differences in spectrum medium point location were interpreted as reflecting the different penetrations rates of peroxide delivery through the enamel under active and passive conditions.
Luminosity was recorded as a measure of brightness with changes reflecting different penetrations rates of peroxide delivery through the enamel under active and passive conditions.

[1] = Magnetic FIM (eM-patch): ETP008 array oscillated at 3 Hz
[2] = Passive: no magnetic field, oscillated at 3 Hz

NC(N)=O.OO [carbamide peroxide]
relative (%) change in tooth colour (reduction in yellow content), mean [1]: 43.98%
average shift from the yellow spectrum to the white spectrum, mean [1]: 36.20
change in colour luminosity, mean [1]: 29.54
average shift from the yellow spectrum to the white spectrum, mean [2]: 27.70
change in colour luminosity, mean [2]: 21.09
relative (%) change in tooth colour (reduction in yellow content), mean (Passive: polystyrene card oscillated at 3 Hz, no magnetic field): 29.58%
greater increase in luminosity than the passive group (magnetic elements in motion vs passive, p=0.023): 40%
greater reduction in yellow content compared to the passive group (magnetic elements in motion vs passive, p=0.025): 49%
average shift from yellow to white spectrum greater than the passive diffusion group (magnetic elements in motion vs passive, p=0.044): 31%
